Test results reported in patent US7785577B2, “Peptides or peptidic conjugate derivatives of MSH and the use thereof for cosmetically fighting against canities” (Institut Europeen de Biologie Cellulaiare, priority 2004, dated 2010).
Non-standard residues stand in square brackets, D forms with d. Residues, ends and D or L forms follow the SMILES beside them. *: point of attachment. Palmitoyl = CCCCCCCCCCCCCCCC(=O)*; Nle = CCCC[C@H](N)C(=O)O

Target: T1, melanocortin-1 receptor MClr (Homo sapiens, UniProt Q01726)
T1 construct: The cells used to test MClr were human melanocytes; endogenous in cells; host or cells: human melanocytes
Assay: Melanogenesis stimulation test: quantification of second messenger cAMP
Assay type: cell-based
Text: Test: Study of the quantification of a second messenger: cAMP
When an agonist binds to this receptor, it leads to activation of a molecule, adenylate cyclase, which produces cAMP. Quantifying cAMP makes it possible to evaluate the affinity of a ligand for its receptor.
Protocol: The cells used to test MClr were human melanocytes.
EC50 is the ligand concentration giving 50% of maximum stimulation.

T1 sequence (Q01726 whole entry): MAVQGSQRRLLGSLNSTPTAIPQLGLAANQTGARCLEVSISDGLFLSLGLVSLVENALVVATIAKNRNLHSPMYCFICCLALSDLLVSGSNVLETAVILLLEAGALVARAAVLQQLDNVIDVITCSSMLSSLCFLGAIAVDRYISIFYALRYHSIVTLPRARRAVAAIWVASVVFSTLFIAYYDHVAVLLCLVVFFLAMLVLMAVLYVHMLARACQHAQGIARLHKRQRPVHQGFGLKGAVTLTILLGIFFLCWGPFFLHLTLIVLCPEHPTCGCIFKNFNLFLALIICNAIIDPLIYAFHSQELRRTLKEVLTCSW

Row | SMILES | EC50
1 | CCCC[C@H](NC(C)=O)C(=O)N[C@@H](C)C(=O)N[C@@H](CCCNC(=N)N)C(=O)N[C@H](Cc1ccccc1)C(=O)N[C@@H](CCCNC(=N)N)C(=O)N[C@@H](Cc1c[nH]c2ccccc12)C(N)=O [Conjugate no. 2, Ac-Nle-Ala-Arg-DPhe-Arg-Trp-NH2] (Ac-[Nle]AR[dF]RW-NH2) | 0.6 nM
2 | CCCCCCCCCCCCCCCC(=O)N[C@@H](CCCC)C(=O)N[C@@H](C)C(=O)N[C@@H](Cc1c[nH]cn1)C(=O)N[C@H](Cc1ccccc1)C(=O)N[C@@H](CCCNC(=N)N)C(=O)N[C@@H](Cc1c[nH]c2ccccc12)C(N)=O [Conjugate no. 13, Palm-Nle-Ala-His-DPhe-Arg-Trp-NH2] (Palmitoyl-[Nle]AH[dF]RW-NH2) | 1.6 nM
